Legend:
HDAC1 = target: T1, HDAC1 (Homo sapiens, UniProt Q13547); experiment: HDAC1 protein level / degradation by immunoblot in HCT116 cells; type: cell-based; settings: even at 10 μM
T1 construct: endogenous in cells; host or cells: HCT116
Protocol: (§1) complex and inhibitor were then incubated at 20 °C, 100 RPM for 2 hours . After incubation, 10 μL of the Boc -(Ac)Lys -AMC substrate, dissolved in HDAC assay buffer, was added to each well. The plate was incubate d at 30 °C, 100 RPM for 1 hour, followed by addition of 50 μL of a developer buffer (50 mM Tris pH 7.5, 100 mM NaCl, 10 mg/mL trypsin) to quench the reaction. The reaction was allowed to develop for 10 minutes at 30 °C, 100 RPM. Fluorescence intensity was determined with the Victor […]
IC50 values were calculated using GraphPad
Prism 7 software by non-linear regression, log (inhibitor) vs. response – variable slope (four […]
(§2) 6. Culture of HCT116 cells
(§3) HCT116 cells were maintained on 100 mm or 60 mm culture dishes in Dulbecco's Modified Eagle Medium (Gibco) supplemented with 10% fetal bovine serum (Sigma) and 1X glutamine/penicillin/streptomycin (Gibco) . Once the cells reached ~90% confluency, they were washed with warm PBS (Sigma), trypsinised using TrypLETM Express solution (Gibco) and put into an incubator at 37°C for 5 minutes. Once dissociated, cell media was used to dilute the cells into required

HDAC3 = target: T2, HDAC3 (Homo sapiens, UniProt O15379); experiment: HDAC3 protein level / degradation by immunoblot in HCT116 cells; type: cell-based; settings: even at 10 μM
T2 construct: endogenous in cells; host or cells: HCT116
Protocol: as §1, with “Victor X5 plate reader (Perkin Elmer, λex = 355 nm, λem = 460 nm). IC50 values were calculated using GraphPad Prism 7 software by non-linear regression, log (inhibitor) vs. response – variable slope (four” for “Victor”
as §2
as §3, with “Once dissociated, cell media was used to dilute the cells into required” left out
mins, 4 °C) and the supernatant was collected. Protein concentrations were quantified via Bradford Assay using Protein Assay Dye Reagent Concentrate (BIO -RAD). […]

T1 sequence (Q13547 whole entry): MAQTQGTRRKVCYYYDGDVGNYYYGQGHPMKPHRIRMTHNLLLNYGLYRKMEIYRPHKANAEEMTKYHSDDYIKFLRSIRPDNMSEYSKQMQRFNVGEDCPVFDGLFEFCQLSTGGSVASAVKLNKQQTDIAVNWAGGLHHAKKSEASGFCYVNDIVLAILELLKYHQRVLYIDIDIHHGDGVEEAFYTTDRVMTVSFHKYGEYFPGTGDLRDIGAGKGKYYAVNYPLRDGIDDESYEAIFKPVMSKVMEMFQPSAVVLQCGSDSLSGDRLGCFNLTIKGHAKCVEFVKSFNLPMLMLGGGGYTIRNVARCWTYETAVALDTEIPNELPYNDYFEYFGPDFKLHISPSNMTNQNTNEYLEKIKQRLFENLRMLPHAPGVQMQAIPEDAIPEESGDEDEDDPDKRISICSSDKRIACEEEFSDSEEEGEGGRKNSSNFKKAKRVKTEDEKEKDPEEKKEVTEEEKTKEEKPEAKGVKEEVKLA
T2 sequence (O15379 whole entry): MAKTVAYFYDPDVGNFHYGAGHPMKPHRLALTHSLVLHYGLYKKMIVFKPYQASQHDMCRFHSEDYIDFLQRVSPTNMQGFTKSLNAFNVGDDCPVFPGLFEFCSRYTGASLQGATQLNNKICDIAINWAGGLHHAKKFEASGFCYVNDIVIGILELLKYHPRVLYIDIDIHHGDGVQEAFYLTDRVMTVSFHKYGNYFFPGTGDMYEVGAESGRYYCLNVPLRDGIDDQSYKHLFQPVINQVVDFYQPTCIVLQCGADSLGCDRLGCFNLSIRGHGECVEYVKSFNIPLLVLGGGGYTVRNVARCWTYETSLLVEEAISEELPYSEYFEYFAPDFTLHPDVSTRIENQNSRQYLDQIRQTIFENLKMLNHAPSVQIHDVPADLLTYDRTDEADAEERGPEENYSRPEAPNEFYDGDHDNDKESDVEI
T2 sequence (Q9Y618 whole entry partner): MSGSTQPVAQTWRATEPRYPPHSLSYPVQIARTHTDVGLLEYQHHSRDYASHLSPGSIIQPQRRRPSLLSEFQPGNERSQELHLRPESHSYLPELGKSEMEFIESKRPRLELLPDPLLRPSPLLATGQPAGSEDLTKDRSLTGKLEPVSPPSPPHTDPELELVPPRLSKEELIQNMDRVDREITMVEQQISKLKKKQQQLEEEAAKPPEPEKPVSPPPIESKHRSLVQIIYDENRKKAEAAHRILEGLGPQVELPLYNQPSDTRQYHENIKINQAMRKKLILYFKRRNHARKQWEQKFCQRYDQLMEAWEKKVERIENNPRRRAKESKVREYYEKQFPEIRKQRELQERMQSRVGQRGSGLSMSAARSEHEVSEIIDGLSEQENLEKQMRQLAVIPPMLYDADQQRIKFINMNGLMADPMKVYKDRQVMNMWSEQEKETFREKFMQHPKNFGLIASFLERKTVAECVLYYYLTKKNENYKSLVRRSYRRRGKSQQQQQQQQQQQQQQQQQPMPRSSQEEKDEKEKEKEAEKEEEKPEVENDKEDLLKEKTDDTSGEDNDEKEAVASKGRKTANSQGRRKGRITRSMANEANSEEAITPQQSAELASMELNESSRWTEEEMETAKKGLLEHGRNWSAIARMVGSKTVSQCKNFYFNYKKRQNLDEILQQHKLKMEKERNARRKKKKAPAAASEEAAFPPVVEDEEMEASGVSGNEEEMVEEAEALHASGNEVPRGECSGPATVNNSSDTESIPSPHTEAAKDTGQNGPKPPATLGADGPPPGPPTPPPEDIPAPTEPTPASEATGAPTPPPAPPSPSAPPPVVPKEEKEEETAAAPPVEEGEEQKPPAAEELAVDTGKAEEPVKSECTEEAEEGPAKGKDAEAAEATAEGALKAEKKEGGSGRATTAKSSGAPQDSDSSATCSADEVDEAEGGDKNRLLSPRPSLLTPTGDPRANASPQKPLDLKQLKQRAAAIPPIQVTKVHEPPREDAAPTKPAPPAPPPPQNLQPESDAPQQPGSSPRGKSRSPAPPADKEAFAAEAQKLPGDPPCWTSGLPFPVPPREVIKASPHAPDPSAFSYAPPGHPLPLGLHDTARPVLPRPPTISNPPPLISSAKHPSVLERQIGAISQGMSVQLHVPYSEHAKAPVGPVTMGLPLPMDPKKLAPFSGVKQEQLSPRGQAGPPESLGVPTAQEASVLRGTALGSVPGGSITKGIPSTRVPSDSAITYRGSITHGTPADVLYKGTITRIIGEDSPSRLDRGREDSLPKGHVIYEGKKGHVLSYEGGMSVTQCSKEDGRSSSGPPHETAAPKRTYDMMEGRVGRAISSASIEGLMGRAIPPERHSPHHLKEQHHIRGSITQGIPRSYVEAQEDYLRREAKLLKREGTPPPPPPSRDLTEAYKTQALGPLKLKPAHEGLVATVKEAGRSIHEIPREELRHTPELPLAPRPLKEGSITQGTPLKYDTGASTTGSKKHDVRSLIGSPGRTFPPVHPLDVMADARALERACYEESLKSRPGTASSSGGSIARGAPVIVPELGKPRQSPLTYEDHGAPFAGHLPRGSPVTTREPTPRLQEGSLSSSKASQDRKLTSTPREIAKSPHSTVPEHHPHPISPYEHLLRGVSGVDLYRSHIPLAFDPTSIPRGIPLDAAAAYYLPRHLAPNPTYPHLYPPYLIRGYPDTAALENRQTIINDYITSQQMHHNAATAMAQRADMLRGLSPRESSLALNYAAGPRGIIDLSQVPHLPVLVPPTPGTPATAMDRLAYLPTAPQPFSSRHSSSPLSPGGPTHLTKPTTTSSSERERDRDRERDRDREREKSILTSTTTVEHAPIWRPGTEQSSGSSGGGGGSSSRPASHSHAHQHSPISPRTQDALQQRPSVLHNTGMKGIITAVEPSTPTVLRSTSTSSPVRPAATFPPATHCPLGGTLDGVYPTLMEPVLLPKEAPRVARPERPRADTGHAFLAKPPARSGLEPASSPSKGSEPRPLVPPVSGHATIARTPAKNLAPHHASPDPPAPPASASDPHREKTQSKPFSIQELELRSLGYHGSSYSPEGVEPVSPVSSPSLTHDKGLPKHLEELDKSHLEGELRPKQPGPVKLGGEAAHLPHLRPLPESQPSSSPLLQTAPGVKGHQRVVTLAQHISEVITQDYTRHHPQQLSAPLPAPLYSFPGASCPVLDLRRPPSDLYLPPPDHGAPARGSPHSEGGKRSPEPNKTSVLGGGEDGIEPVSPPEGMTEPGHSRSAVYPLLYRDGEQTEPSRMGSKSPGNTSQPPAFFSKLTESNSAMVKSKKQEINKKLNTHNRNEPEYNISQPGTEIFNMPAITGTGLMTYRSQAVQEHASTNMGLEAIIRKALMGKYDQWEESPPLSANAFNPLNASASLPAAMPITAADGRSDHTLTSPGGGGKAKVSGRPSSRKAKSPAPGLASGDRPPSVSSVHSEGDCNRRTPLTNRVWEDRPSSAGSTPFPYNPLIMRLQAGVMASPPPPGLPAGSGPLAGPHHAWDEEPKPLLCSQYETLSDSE

degradation of HDAC1 (HDAC1): no degradation
degradation of HDAC3 (HDAC3): no degradation
Compound: Cc1ncsc1-c1ccc(CNC(=O)[C@@H]2C[C@@H](O)CN2C(=O)[C@@H](NC(=O)CCCCCCCCCC(=O)N2CCN(c3cnc(C(=O)Nc4cc(-c5ccncc5)ccc4N)cn3)CC2)C(C)(C)C)cc1 [JPS062]
